{
  "source": "paper PMC12267471",
  "about": "“Discovery of natural scaffolds as HER2 inhibitors for breast cancer: virtual screening, molecular dynamics, and biological characterization with selectivity profiling” (Scientific Reports, 2025)",
  "key": {"[1]": {"test_system": "EGFR", "design": "method as in earlier work", "conditions": "Table S1; cited from earlier work"}, "[2]": {"test_system": "ERBB2", "design": "method as in earlier work", "conditions": "Table S1; cited from earlier work"}, "[3]": {"test_system": "ERBB4", "design": "method as in earlier work", "conditions": "Table S1; cited from earlier work"}, "[4]": {"molecular_target": "T1, HER2 kinase (Homo sapiens, UniProt P04626)", "T1 construct": "HER2 purified kinase domain (amino acids 676–1255); purchased Thermo Fischer Scientific PV3590", "T1 sequence (P04626 676-1255)": "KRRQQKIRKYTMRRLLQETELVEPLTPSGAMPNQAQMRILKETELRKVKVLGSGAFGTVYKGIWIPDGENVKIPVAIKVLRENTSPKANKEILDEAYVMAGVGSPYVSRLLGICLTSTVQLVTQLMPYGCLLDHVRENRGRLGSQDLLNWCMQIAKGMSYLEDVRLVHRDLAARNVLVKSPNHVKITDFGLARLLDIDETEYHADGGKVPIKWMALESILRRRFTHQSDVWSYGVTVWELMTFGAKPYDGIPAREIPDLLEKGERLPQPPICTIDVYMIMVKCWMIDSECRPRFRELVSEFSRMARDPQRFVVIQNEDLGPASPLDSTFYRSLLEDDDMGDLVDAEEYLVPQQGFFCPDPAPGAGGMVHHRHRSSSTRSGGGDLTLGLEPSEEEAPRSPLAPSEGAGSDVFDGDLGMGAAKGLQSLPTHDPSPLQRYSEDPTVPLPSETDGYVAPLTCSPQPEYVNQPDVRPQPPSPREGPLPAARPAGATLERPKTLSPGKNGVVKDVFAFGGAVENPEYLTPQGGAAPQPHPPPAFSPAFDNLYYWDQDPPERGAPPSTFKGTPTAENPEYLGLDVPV", "experiment": "Z'-LYTE Kinase Assay-Tyr6 Peptide biochemical HER2 kinase assay", "conditions": "for IC50: Tyr6 peptide substrate, read-out: IC50, inhibition of ATP-induced HER2 phosphorylation", "description": "The Z’-LYTE™ Kinase Assay-Tyr6 Peptide kit (Thermo Fischer Scientific™, Madison, WI, USA) was employed to evaluate the potential of selected natural products to suppress the catalytic activity of HER2 kinase. The assay adopts a Fluorescence Resonance Energy Transfer (FRET) based method in a cell-free coupled-enzyme format with no use of antibodies. The assay method mainly relies on the difference in sensitivity of phosphorylated and non-phosphorylated peptides to proteolytic cleavage. This method is a ratio metric method that calculates the Emission Ratio of donor emission divided by acceptor emission after excitation of the donor fluorophore at 400 nm. In this assay, 20 µL/well reactions containing kinase buffer, 200 µM ATP, 4µM Z’-LYTE Tyr6 Peptide substrate, 2500 ng/mL HER2 kinase, and drugs of interest functioning as inhibitors were set up in 96-well plates. Each well received 10 µL of site-specific protease development solution after one hour of room temperature incubation. The incubation continued for a full hour. Following process termination, the kinase inhibitory activity and/or peptide substrate cleavage status were assessed using a plate reader (BioTek FLx800™) to measure the ratio of fluorescence signal at 445 nm (coumarin)/520 nm (fluorescein).\nThe IC50 value for each natural product was computed using XLfit® 4.1 software (ID Business Solutions Inc. (IDBS), Emeryville CA), applying non-linear regression of log concentration against the percentage of HER2 inhibition.\nUtilizing the Z’-LYTE™ Kinase Assay-Tyr6 Peptide kit as a cell-free system for evaluating the inhibitory activity of HER2, the five natural products were evaluated for their capacity to inhibit HER2 phosphorylation. Since its kinase catalysis is necessary for all HER2-mediated activities, we attempted at this initial stage to validate the HER2 inhibitory ability of the five in silico hits directly on the HER2 purified kinase domain (amino acids 676–1255), that was in vitro phosphorylated to attain the maximum level of intrinsic kinase activity. In this assay, the substrate was Z’-LYTE™ Tyr6 peptide; thus, the changes in its phosphorylation can directly correlate with the HER2 kinase activity. In the meantime, tyrphostin AG 1478 was used as a positive control to ensure the validity of the assay. Lapatinib (Tykerb®) was included as a second positive control to benchmark virtual hits’ performance against clinically approved standards."}, "[5]": {"test_system": "BT-474 cells", "experiment": "MTT proliferation assay, BT-474", "assay_type": "cell-based, human"}, "[6]": {"test_system": "SKBR3 cells", "experiment": "MTT proliferation assay, SKBR3", "assay_type": "cell-based, human"}, "[7]": {"test_system": "MCF10A cells", "experiment": "MTT cytotoxicity assay, non-tumorigenic MCF10A", "assay_type": "cell-based, human"}, "[8]": {"test_system": "BT-474 cells", "experiment": "Wound healing assay, BT-474", "assay_type": "cell-based", "conditions": "Homo sapiens", "protocol": "(§1) In a sterile flat-bottom 24-well plate, SKBR3 and BT-474 breast cancer cells were plated at a density of 1 × 10^5 cells/well. […] Wounds were then inflicted across each cell monolayer using a sterile 200 µL pipette tip. Media was aspirated, and cells were washed twice with PBS to remove floating cells and cell debris. Fresh serum-free media was placed up against the well wall to cover the bottom of the well and prevent further cell detachment. Incubation of cells was resumed for five hours at 37 °C in a humidified CO2 incubator. Subsequently, the media were substituted with fresh ones containing various doses of liquiritin, oroxin B, or DMSO as a vehicle control (3 replicates/group) along with EGF (100 ng/mL) as a scattering factor. Wound closure was microscopically monitored in vehicle-treated control wells, and the time frame for wound closure was determined to be 72 h. Before the closure of wounds in the vehicle-treated control wells, the media were removed, cells were washed with PBS and completely fixed using cold methanol for 20 min at 4 °C. An inverted VistaVision microscope was used to take pictures of the wounds monitored at zero and 72 h with a VistaVision Still camera (VWR, Radnor, PA).\n(§2) Results were expressed as a percentage of cell migration according to the following Equation[16]: [drawing 2]\n(§3) Where Tt is the wound thickness in treatment wells, TDMSO is the thickness of the wound in control wells treated by DMSO, and Tº is the thickness of the wound at zero time. Wound thickness was calculated in three or more randomly selected fields per treatment group."}, "[9]": {"test_system": "SKBR3 cells", "experiment": "Wound healing assay, SKBR3", "assay_type": "cell-based", "conditions": "Homo sapiens", "protocol": "as §1, §2, §3"}, "[10]": {"conditions": "Homo sapiens, BT-474, MTT, 48 h (Table S8), read-out: Cell growth inhibition IC50"}, "[11]": {"conditions": "Homo sapiens, SK-BR-3, SKBR3, MTT, 48 h (Table S8), read-out: Cell growth inhibition IC50"}, "[12]": {"conditions": "Homo sapiens, BT-474, Table S9, read-out: IC50"}},
  "data": [
    {"compound": "COc1cc2ncnc(Nc3ccc(F)c(Cl)c3)c2cc1NC(=O)/C=C/CN1CCCCC1", "note": "[Dacomitinib]", "values": [
      {"measurement": "IC50", "setting": "[1]", "result": 0.006, "unit": "µM"},
      {"measurement": "IC50", "setting": "[2]", "result": "[…]"},
      {"measurement": "IC50", "setting": "[3]", "result": "[…]"}
    ]},
    {"compound": "OC[C@H]1O[C@@H](Oc2cc3c(O[C@@H]4O[C@H](CO)[C@@H](O)[C@H](O)[C@H]4O)cc(O)cc3[o+]c2-c2cc(O)c(O)c(O)c2)[C@H](O)[C@@H](O)[C@@H]1O", "note": "[Delphin, Delphinidin-3,5-O-diglucoside]", "values": [
      {"measurement": "suppression of HER2 phosphorylation", "setting": "[4]; cell-free Z'-LYTE", "result": "no discernible suppression"}
    ]},
    {"compound": "CS(=O)(=O)CCNCc1ccc(-c2ccc3ncnc(Nc4ccc(OCc5cccc(F)c5)c(Cl)c4)c3c2)o1", "note": "[Lapatinib, reference compound]", "values": [
      {"measurement": "inhibition at 0.015 µM", "setting": "[4]; at 15 nM", "result": 54, "unit": "%"},
      {"measurement": "inhibition at 0.03 µM", "setting": "[4]; at 30 nM", "result": 75, "unit": "%"},
      {"measurement": "IC50", "setting": "[5]; [10]", "result": 0.117, "unit": "µM"},
      {"measurement": "IC50", "setting": "[5]; Homo sapiens, BT-474, MTT, 48 h, read-out: IC50", "result": 0.118, "unit": "µM"},
      {"measurement": "IC50", "setting": "[6]; Homo sapiens, SK-BR-3, SKBR3, MTT, 48 h, read-out: IC50", "result": 0.153, "unit": "µM"}
    ]},
    {"compound": "C[C@@H]1O[C@@H](OC[C@H]2O[C@@H](Oc3cc(O)c4c(=O)cc(-c5ccc(O)cc5)oc4c3)[C@H](O[C@@H]3O[C@@H](C)[C@H](O)[C@@H](O)[C@H]3O)[C@@H](O)[C@@H]2O)[C@H](O)[C@H](O)[C@H]1O", "note": "[Ligustroflavone]", "values": [
      {"measurement": "IC50", "setting": "[4]; cell-free Z'-LYTE", "result": 0.0365, "unit": "µM"},
      {"measurement": "IC50", "setting": "[5]; BT-474, MTT, 48 h (Table S8), read-out: Cell growth inhibition IC50", "result": 6, "unit": "µM"},
      {"measurement": "IC50", "setting": "[6]; SKBR3, MTT, 48 h (Table S8), read-out: Cell growth inhibition IC50", "result": 12.7, "unit": "µM"}
    ]},
    {"compound": "OC[C@H]1O[C@@H](Oc2cc(O)cc(/C=C/c3ccc(O[C@@H]4O[C@H](CO)[C@@H](O)[C@H](O)[C@H]4O)cc3O)c2)[C@H](O)[C@@H](O)[C@@H]1O", "note": "[Mulberroside A]", "values": [
      {"measurement": "IC50", "setting": "[4]; cell-free Z'-LYTE", "result": 0.0377, "unit": "µM"},
      {"measurement": "IC50", "setting": "[5]; [10]", "result": 5.9, "unit": "µM"},
      {"measurement": "IC50", "setting": "[6]; [11]", "result": 11, "unit": "µM"}
    ]},
    {"compound": "O=c1cc(-c2ccccc2)oc2cc(O[C@@H]3O[C@H](CO[C@@H]4O[C@H](CO)[C@@H](O)[C@H](O)[C@H]4O)[C@@H](O)[C@H](O)[C@H]3O)c(O)c(O)c12", "note": "[Oroxin B]", "values": [
      {"measurement": "IC50", "setting": "[4]; cell-free Z'-LYTE", "result": 0.0121, "unit": "µM"},
      {"measurement": "IC50", "setting": "[5]; [10]", "result": 6.9, "unit": "µM"},
      {"measurement": "IC50", "setting": "[5]; [12]", "result": "6.9 ± 0.7", "unit": "µM"},
      {"measurement": "IC50", "setting": "[6]; [11]", "result": 11.9, "unit": "µM"},
      {"measurement": "IC50", "setting": "[6]; Homo sapiens, SK-BR-3, SKBR3, Table S9, read-out: IC50", "result": "11.9 ± 0.8", "unit": "µM"},
      {"measurement": "IC50", "setting": "[7]; Homo sapiens, MCF-10A, MCF10A, MTT, 24 h", "result": "53 ± 2.1", "unit": "µM"},
      {"measurement": "selectivity index (SI)", "setting": "[7]; IC50 MCF10A / IC50 BT-474", "result": 7.7},
      {"measurement": "selectivity index (SI)", "setting": "[7]; IC50 MCF10A / IC50 SKBR3", "result": 4.5},
      {"measurement": "IC50", "setting": "[8]; BT-474, read-out: IC50, cell migration", "result": "> 20", "unit": "µM"},
      {"measurement": "inhibition at 3 µM", "setting": "[8]; BT-474, 3 µM, 72 h, read-out: inhibition of cell migration", "result": 18.9, "unit": "%"},
      {"measurement": "inhibition at 7 µM", "setting": "[8]; BT-474, 7 µM, 72 h, read-out: inhibition of cell migration", "result": 26.5, "unit": "%"},
      {"measurement": "inhibition at 10 µM", "setting": "[8]; BT-474, 10 µM, 72 h, read-out: inhibition of cell migration", "result": 29.5, "unit": "%"},
      {"measurement": "inhibition at 20 µM", "setting": "[8]; BT-474, 20 µM, 72 h, read-out: inhibition of cell migration", "result": 38.6, "unit": "%"},
      {"measurement": "IC50", "setting": "[9]; SK-BR-3, read-out: IC50, cell migration", "result": "> 36", "unit": "µM"},
      {"measurement": "inhibition at 6 µM", "setting": "[9]; SK-BR-3, SKBR3, 6 µM, 72 h, read-out: inhibition of cell migration", "result": 23.5, "unit": "%"},
      {"measurement": "inhibition at 12 µM", "setting": "[9]; SK-BR-3, SKBR3, 12 µM, 72 h, read-out: inhibition of cell migration", "result": 26.5, "unit": "%"},
      {"measurement": "inhibition at 18 µM", "setting": "[9]; SK-BR-3, SKBR3, 18 µM, 72 h, read-out: inhibition of cell migration", "result": 31.1, "unit": "%"},
      {"measurement": "inhibition at 36 µM", "setting": "[9]; SK-BR-3, SKBR3, 36 µM, 72 h, read-out: inhibition of cell migration", "result": 34.8, "unit": "%"}
    ]},
    {"compound": "CN[C@@H]1C[C@H]2O[C@@](C)([C@@H]1OC)n1c3ccccc3c3c4c(c5c6ccccc6n2c5c31)C(=O)NC4", "note": "[Staurosporine, reference compound]", "values": [
      {"measurement": "IC50", "setting": "[5]; [10]", "result": 3.2, "unit": "µM"},
      {"measurement": "IC50", "setting": "[5]; [12]", "result": "3.2 ± 0.3", "unit": "µM"}
    ]}
  ]
}
